In publication PMC7584369, “Di-bromo-Based Small-Molecule Inhibitors of the PD-1/PD-L1 Immune Checkpoint” (Journal of Medicinal Chemistry, 2020):
Several values for one entry are separate records, joined by “and”; a condition that tells them apart may be missing. Identical values can stand only once. Entries after “also recorded” stand apart in the source; their conditions may differ. Counter-ions that a name gives are not always drawn. Values belong to the molecule of their own block, whether it stands above or below them.

How the values were obtained:
[1] = target: T1, N66A-PD-1/PD-L1 complex (Homo sapiens, UniProt Q9NZQ7); experiment: w-AIDA-NMR (weak antagonist-induced dissociation assay); assay type: binding; conditions: equimolar concentrations
T1 construct: hPD-L1 residues, 18–134, C-terminal His-tag; His-tag (C); made in house; host or cells: Escherichia coli BL21 (DE3)
T1 sequence (Q9NZQ7 18-134, stated change not applied, one chain of several): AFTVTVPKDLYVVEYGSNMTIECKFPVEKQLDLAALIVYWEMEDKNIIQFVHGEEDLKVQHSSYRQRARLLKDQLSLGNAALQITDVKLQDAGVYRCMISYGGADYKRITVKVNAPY
From the text: Because HTRF is prone to “false positives”, especially aggregators and autofluorophores, we validated the results using the w-AIDA-NMR assay developed by us. […] In the w-AIDA-NMR 2D experiment, ^15N mutated PD-1 gives a characteristic pattern of peaks (Figure 2A). Peak assignment is not necessary as we observe a relative change in the intensity and positions of the reference peaks upon the addition of ligand/inhibitors. Upon the formation of the complex with PD-L1, most of the cross-peaks in the ^1H–^15N HMQC spectrum of PD-1 became broader and less intense with some of the cross-peaks disappearing (Figure 2B). If the inhibitor is capable of disrupting the complex, the resulting spectrum should come back to the reference one of PD-1 alone, as tested inhibitors are PD-L1 binders. […]
Uniform ^15N labeling was obtained by expressing proteins in the M9 minimal medium containing ^15NH4Cl as the sole nitrogen source. […] All spectra were recorded at 300 K using a Bruker Avance III 600 MHz spectrometer equipped with the nitrogen cryoprobe. The ability of tested compounds to dissociate PD-L1/(wild type, wt or N66A)PD-1 was evaluated using the (weak) antagonist-induced dissociation assay (w-AIDA-NMR). […] During the experiment, the ^1H–^15N signals were monitored by SOFAST HMQC.

[2] = target: T2, wtPD-1/PD-L1 complex (Homo sapiens, UniProt Q9NZQ7); experiment: AIDA-NMR with wild-type proteins; assay type: binding; conditions: wild-type PD-1
T2 construct: hPD-L1 residues, 18–134, C-terminal His-tag; His-tag (C); made in house; host or cells: Escherichia coli BL21 (DE3)
T2 sequence (Q9NZQ7 18-134, one chain of several): as the sequence (Q9NZQ7 18-134, stated change not applied, one chain of several) above

[3] = target: T3, PD-1/PD-L1 complex (hPD-L1 and hPD-1) (Homo sapiens, UniProt Q9NZQ7); experiment: Homogeneous time-resolved fluorescence (HTRF) assay, Cis-Bio kit; assay type: binding
T3 construct: purchased Cis-Bio
T3 sequence (Q9NZQ7 19-238 limits assumed, one chain of several): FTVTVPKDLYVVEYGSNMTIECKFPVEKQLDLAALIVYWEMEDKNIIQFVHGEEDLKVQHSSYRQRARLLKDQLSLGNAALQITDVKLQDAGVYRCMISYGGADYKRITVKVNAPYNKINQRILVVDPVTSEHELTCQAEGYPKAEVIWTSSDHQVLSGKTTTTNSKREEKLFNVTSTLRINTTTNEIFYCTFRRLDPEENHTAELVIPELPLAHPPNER

[4] = target: T4, murine PD-L1 (Mus musculus, UniProt Q9EP73); experiment: MicroScale Thermophoresis (MST) binding assay, murine PD-L1; conditions: mPD-L1
T4 construct: mPD-L1 residues, 19–134; made in house; host or cells: Escherichia coli BL21 (DE3)
T4 sequence (Q9EP73 19-134): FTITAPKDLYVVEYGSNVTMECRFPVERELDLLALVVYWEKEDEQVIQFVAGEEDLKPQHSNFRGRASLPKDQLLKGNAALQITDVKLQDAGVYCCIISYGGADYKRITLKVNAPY

[5] = target: T5, human PD-L1 (Homo sapiens, UniProt Q9NZQ7); experiment: MicroScale Thermophoresis (MST) binding assay, human PD-L1; conditions: hPD-L1
T5 construct: hPD-L1 residues, 18–134, C-terminal His-tag; His-tag (C); made in house; host or cells: Escherichia coli BL21 (DE3)
T5 sequence (Q9NZQ7 18-134): as the sequence (Q9NZQ7 18-134, stated change not applied, one chain of several) above

[6] = target: T6, hPD-1/hPD-L1 immune checkpoint (hPD-L1 aAPCs and Jurkat hPD-1 effector cells) (Homo sapiens, UniProt Q9NZQ7); experiment: hPD-1/hPD-L1 immune checkpoint blockade cell-based assay (Promega Blockade Bioassay)
T6 construct: host or cells: CHO K-1 (hPD-L1 aAPCs) and Jurkat T cells (hPD-1 effector cells)
T6 sequence (Q9NZQ7 19-290): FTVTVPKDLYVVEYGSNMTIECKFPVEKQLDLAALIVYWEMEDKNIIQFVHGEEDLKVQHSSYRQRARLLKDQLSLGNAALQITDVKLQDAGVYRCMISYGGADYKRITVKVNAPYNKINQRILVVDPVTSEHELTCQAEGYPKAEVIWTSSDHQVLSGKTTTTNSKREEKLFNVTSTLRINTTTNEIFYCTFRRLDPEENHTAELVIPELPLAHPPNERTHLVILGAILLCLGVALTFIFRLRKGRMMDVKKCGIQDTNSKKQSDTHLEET

[7] = target: T5, human PD-L1; experiment: 1H NMR binding assay; conditions: molar ratio 1:1
Description: The direct binding of the most prominent compounds 2k and 3d to the human PD-L1 was also confirmed with a ^1H NMR method (Figure S3).
Figure S2 ELISA assay results.
High-binding 96 well plates (Thermo Scientific, cat. 439454) were coated with 1.2 μg/ml (50 μL/well) of Fc-tagged human PD-1 (Recepton Sp. z o.o., cat. R1-001-1) and incubated overnight at 4 ◦C. The plates were warmed to room temperature, washed with wash buffer (1 x PBS, 0.05% Tween 20, pH 7.4) and blocked with 1 % BSA in 1 x PBS, pH 7.4 for 2 h. Standard curve was generated with 0.02 – 50 ug/mL His- and Fc- tagged human PD-L1 (Recepton Sp. z o.o., cat. R1-002-1). […] The bound ligand was detected with the addition of 50 μL/well biotinylated Anty-His antibody (Southern Biotech, cat. 4603-08) followed by 1 h incubation, wash steps and addition of 50 μL/well streptavidin-HRP (Thermo Scientific, cat. 21126). […] The absorbance readings were made on Tecan Spark at the wavelength 450 nm and the reference wavelength 655 nm. IC50 was calculated based on the Δ((A450-A655) from sample – (A450-A655) from background) readings fitted in the plot using a Hill’s […]
For NMR measurements, the buffer was exchanged by gel filtration to PBS pH 7.4. […] All spectra were recorded at 300 K using a Bruker Avance III 600 MHz spectrometer. […]

[8] = tested on: primary human T cells; experiment: Flow cytometry of activation markers on primary T cells (PBMCs on hPD-L1 aAPCs); assay type: cell-based; conditions: 48 h
Description: The biological activity of the compound 2k was further verified on the primary T cells. For this, peripheral blood mononuclear cells (PBMCs) isolated from the blood of healthy donors were contacted with hPD-L1 aAPCs to provide TCR-mediated activation of T cells and the engagement of PD-1/PD-L1 immune checkpoint. The cells were then analyzed with flow cytometry following the gating for CD4^+ and CD8^+ T cells. The blockade of the PD-1/PD-L1 immune checkpoint was expected to increase the activation of T cells. In the experiment, atezolizumab and compound 2k were used. […] Because the prolonged activation of T cells leads to the increase of the expression of immune checkpoint molecules,[30] we have monitored the expression of PD-1 protein itself as an indicator of the late T cell activation and exhaustion. […] This confirms the bioactivity of the compound 2k in the context of primary T cells.
Blood samples from healthy donors were purchased from the Regional Center of Blood Donation and Blood Therapy in Krakow. PBMCs were isolated by a density gradient centrifugation using Pancoll human separating solutions (PAN-Biotech) and then resuspended in RPMI 1640 medium (Biowest) containing 10% FBS (Biowest).
PBMCs were added to the preseeded aAPCs at the density of 400 000 cells/well and incubated in the presence of compound 2k, DMSO, and with or without atezolizumab (5 μg/mL) as an anti-PD-L1 monoclonal antibody. After 48 h, cells were detached using TrypLe Select Enzyme (Thermo Fisher Scientific), collected into 5 mL round-bottom tubes, and washed with flow cytometry staining buffer (Thermo Fisher Scientific). For flow cytometry analysis, cells were stained using monoclonal antibodies: anti-CD69-APC, anti-CD4-FITC, anti-CD8-BV510, and anti-PD1-PECy7 (Becton Dickinson, BD). Following 20 min of incubation at room temperature, cells were washed, resuspended in PBS, and analyzed using a FACSCanto II flow cytometer (BD) and FACSDiva software (BD). The data analysis was carried out with FACSuite software (BD).

[9] = tested on: Jurkat PD-1 Effector Cells alone or in co-culture with CHO K-1 PD-L1 aAPCs; experiment: Cytotoxicity / cell viability assay (tetrazolium reagent); assay type: cell-based; conditions: not toxic up to the stated final concentration
[10] = target: T7, human PD-1/PD-L1 complex (Homo sapiens, UniProt Q9NZQ7); experiment: Competitive ELISA; assay type: binding; conditions: dissociation of human PD-1/PD-L1 complex
T7 construct: Fc; purchased Recepton Sp. z o.o; R1-002-1 (PD-L1); R1-001-1 (PD-1)
T7 sequence (Q9NZQ7 19-238 limits assumed, one chain of several): as the sequence (Q9NZQ7 19-238 limits assumed, one chain of several) above

Molecule: BrCc1cccc(-c2ccccc2)c1Br [1a, 2-bromo-3-(bromomethyl)-1,1′-biphenyl]
dissociation of the mutant N66A-PD-1/PD-L1 complex [1]: capable of dissociating; also recorded: all PD-1 peaks are restored; also recorded: dissociated
dissociation of the wtPD-1/PD-L1 complex [2]: not able to dissociate

Molecule: OCc1cccc(-c2ccccc2)c1-c1ccccc1 [1b, [1,1′:2′,1″-terphenyl]-3′-ylmethanol]
IC50 [3]: > 100000 nM

Molecule: OCc1cccc(-c2ccccc2)c1F [1c]
dissociation of the mutant N66A-PD-1/PD-L1 complex [1]: capable of dissociating; also recorded: all PD-1 peaks are restored; also recorded: dissociated
dissociation of the wtPD-1/PD-L1 complex [2]: not potent enough to dissociate

Molecule: O=C(NCCCN1CCOCC1)c1ccc(OCc2cccc(-c3ccccc3)c2Br)c(Br)c1 [2f, 4-(3-(3-Bromo-4-((2-bromo-[1,1′-biphenyl]-3-yl)methoxy)benzamido)propyl)morpholin-4-ium Hydrochloride]
IC50 [3]: 13200 ± 150 nM

Molecule: CC(=O)NCCNCc1ccc(OCc2cccc(-c3ccccc3)c2Br)c(Br)c1 [2g, N-(2-((3-Bromo-4-((2-bromo-[1,1′-biphenyl]-3-yl)methoxy)benzyl)amino)ethyl)acetamide]
MST KD [4]: no activity
IC50 [3]: 12.2 ± 0.2 nM
Kd [5]: 3.17 nM and 3.2 nM
toxicity of the compound observed above concentration ([6]; EC50 estimated on partial data because of it): above 10 μM
EC50 ([6]; cell based assay, Table S1): 6700 ± 1100 nM

Molecule: O=C(O)[C@@H]1CCCCN1Cc1ccc(OCc2cccc(-c3ccccc3)c2Br)cc1 [2h, (S)-1-(4-((2-Bromo-[1,1′-biphenyl]-3-yl)methoxy)benzyl)piperidine-2-carboxylic Acid]
IC50 [3]: 522 ± 0.5 nM

Molecule: Cc1cc(CN2CCCC[C@H]2C(=O)O)ccc1OCc1cccc(-c2ccccc2)c1Br [2i, (S)-1-(4-((2-Bromo-[1,1′-biphenyl]-3-yl)methoxy)-3-methylbenzyl)piperidine-2-carboxylic Acid]
MST KD [4]: no activity

Molecule: COc1cc(CN2CCCC[C@H]2C(=O)O)ccc1OCc1cccc(-c2ccccc2)c1Br [2j, (S)-1-(4-((2-Bromo-[1,1′-biphenyl]-3-yl)methoxy)-3-methoxybenzyl)piperidine-2-carboxylic Acid]
IC50 [3]: 204 ± 6.4 nM
EC50 ([6]; cell based assay, Table S1): > 500000 nM

Molecule: O=C(O)[C@@H]1CCCCN1Cc1ccc(OCc2cccc(-c3ccccc3)c2Br)c(Br)c1 [2k, (S)-1-(3-Bromo-4-((2-bromo-[1,1′-biphenyl]-3-yl)methoxy)benzyl)piperidine-2-carboxylic Acid]
MST KD [4]: no activity
dissociation of the wtPD-1/PD-L1 complex [2]: dissociated
Kd [5]: 4.04 nM and 4 nM
direct binding to hPD-L1 (1H NMR) [7]: caused flattening of 2D spectra characteristic for the dimerization; also recorded: caused a characteristic dimerization of hPD-L1
expression of PD-1 receptor on the surface of CD4+ and CD8+ T cells [8]: significant increase
expression of early T-cell activation marker CD69 [8]: Neither of the two molecules was able to increase
level of the Jurkat T cell activation ([6]; at a 50 μM concentration): 2.1 fold
toxic concentration in cell viability assay [9]: > 100 µM
IC50 [10]: 1.47 ± 0.05 nM

Molecule: Durvalumab: a clinically relevant PD-L1-blocking antibody; positive control anti-hPD-L1 monoclonal antibody [reference compound]
EC50 ([6]; reference antibody, Hill fit): 0.2 ± 0.06 nM

Molecule: atezolizumab: an anti-PD-L1 therapeutic antibody [reference compound]
expression of PD-1 receptor on the surface of CD4+ and CD8+ T cells [8]: significant increase
expression of early T-cell activation marker CD69 [8]: Neither of the two molecules was able to increase

Further lines, with some results ahead:

solubility in DMSO/water conditions ([6]; disallowed data collection for the two highest concentrations): solubility problems
Molecule: N#Cc1cc(COc2cc(OCc3cccc(-c4ccccc4)c3Br)c(Cl)cc2CN2C[C@@H](O)C[C@H]2C(=O)O)ccn1 [3d]
direct binding to hPD-L1 (1H NMR) [7]: caused flattening of 2D spectra characteristic for the dimerization; also recorded: caused a characteristic dimerization of hPD-L1

IC50 [3]: 49100 ± 150 nM
Molecule: O=C(O)[C@@H]1C[C@H](O)CN1Cc1ccc(OCc2cccc(-c3ccccc3)c2-c2ccccc2)c(Br)c1 [4f, (2S,4S)-1-(4-([1,1′:2′,1″-Terphenyl]-3′-ylmethoxy)-3-bromobenzyl)-4-hydroxypyrrolidine-2-carboxylic Acid]

IC50 [3]: 29400 ± 450 nM
Molecule: N#Cc1ccc(-c2cccc(COc3ccc(C=O)cc3Br)c2Br)cc1 [4g, 2′-Bromo-3′-((2-bromo-4-formylphenoxy)methyl)-[1,1′-biphenyl]-4-carbonitrile]

MST KD [4]: no activity
Molecule: Cc1c(COc2cc(OCc3cccc(C#N)c3)c(CN3C[C@H](O)C[C@@H]3C(=O)O)cc2Cl)cccc1-c1ccc2c(c1)OCCO2 [BMS-1166, reference compound]
